# “Also recorded” adds a separate entry of the source. Read-outs that look alike come from different tables or passages of the source. Marks after values point to notes of the source that are not given here.
# Tests used:
# Type in all cases: cell-based, human
# [1] = tested on: MES-SA/Dx5 cells; test: Proliferation of doxorubicin-resistant cells, continuous 72 h exposure
# Description: To test the ability of the ELP doxorubicin carrier to overcome this drug resistance, a uterine cancer cell line (MES-SA) and its doxorubicin resistant subline MES-SA/Dx5 were treated with either free doxorubicin or ELP-delivered doxorubicin.
# A major problem with classical chemotherapy is the development of drug resistance. The most common mechanism of resistance is expression of a drug efflux pump (MDR1) by the cancer cells in response to drug treatment. This pump can remove drugs from the cells, and, though induced by one drug, it can act on a wide variety of others, resulting in a phenomenon called multi-drug resistance. […] The present inventors used this cell line to determine whether ELP delivered DOX can overcome MDR1-mediated resistance to doxorubicin. MES-SA/Dx5 cells were incubated with Tat-ELP-GFLG-DOX (SEQ ID NO: 3) continuously for 72 h.
# [2] = tested on: MES-SA uterine sarcoma cells; details: for IC50: cells counted after 72 h, ± SEM
# Description: MES-SA cells were treated for 1 h at 37 or 42° C. with 5 μM Tat-ELP-GFLG-DOX (SEQ ID NO: 3); ELP-GFLG-DOX (SEQ ID NO: 3), which lacks the Tat cell penetrating peptide; or Tat-ELP-GFLG (SEQ ID NO: 3), which is not labeled with DOX. After the 1 h treatment, cells were rinsed and fresh media was replaced for 72 h. Cells remaining after 72 h were collected by trypsinization and counted using a Coulter counter. […] Similarly, the control polypeptide which lacks the Tat sequence was not cytotoxic, likely because it cannot efficiently enter the cells.
# 1.8 Cytotoxicity Assay. Cells were plated and treated for 1 h at 37° C. and 42° C. as described above with Tat-ELP1-GFLG-Dox (SEQ ID NO: 3), Tat-ELP2-GFLG-Dox (SEQ ID NO: 3), or control polypeptides lacking the Tat sequence or unlabeled with Dox. Cells were rinsed and harvested 72 h after treatment by trypsinization, collected by centrifugation, and resuspended in isotonic buffer. Cell number was determined using a Coulter counter and expressed as a percentage of untreated cells.
# 1.10. Data Fitting and Statistical Analysis. The concentration dependence of the Tt was fit with a logarithmic equation using Microsoft Excel. Dose-response curves were fit using exponential or sigmoid equations as applicable using Microcal Origin in order to determine the 50% inhibitory concentration (IC50). […] The significance of the thermal targeting index was assessed by comparing the normothermia group with the hyperthermia group using a paired Student's t-test in Microsoft Excel. p values of less than 0.05 were considered statistically significant. Polypeptide uptake and caspase activation were analyzed for statistical differences using one-way ANOVA analyses with post-hoc Scheffe's tests for pair-wise comparisons of treatment groups. The statistical significance level was p<0.05.
# 3.5. Cytotoxicity of ELP-delivered Dox. The growth-inhibitory activity of Tat-ELP-GFLG-Dox (SEQ ID NO: 3) was evaluated in the MES-SA uterine sarcoma cell line. MES-SA cells were treated for 1 h at 37° C. or 42° C. with various concentrations of Tat-ELP-GFLG-Dox (SEQ ID NO: 3); ELP-GFLG-Dox (SEQ ID NO: 3), which lacks the Tat cell penetrating peptide, the Tat-ELP-GFLG (SEQ ID NO: 3) polypeptide without Dox; or free Dox. After the 1 h treatment, the cells were rinsed and fresh media was replaced for 72 h. Cells remaining after 72 h were rinsed, collected by trypsinization, and counted using a Coulter counter. […] The toxicity of the unlabeled Tat-ELP-GFLG (SEQ ID NO: 3) protein was negligible when treated below the Tt.
# [3] = tested on: MES-SA cells; test: Caspase activation, FLICA polycaspase assay with flow cytometry; details: 10 μM, 1 h
# Description: MES-SA cells were treated for 1 h at 37 or 42° C. with Tat-ELP-GFLG-DOX (SEQ ID NO: 3), the control construct lacking the Tat sequence, with free DOX. Cells were harvested after the 1 h exposure, and caspase activity was detected using a fluorescent caspase inhibitor (Immunochemistry Technologies, Bloomington, Minn.) and flow cytometry.
# Caspase activation was measured using a carboxyfluorescein FLICA polycaspase assay (Immunochemistry Technologies, Bloomington, Minn.). Cells were treated as described above with the indicated protein, collected by trypsinization, and stained for 2 h at 37° C. with the carboxyfluorescein FLICA reagent as described by the manufacturer. Cells were rinsed twice and analyzed for caspase activation by flow cytometry using a Cytomics FC 500 flow cytometer (n=5,000 cells). Forward versus side scatter gating was used to eliminate cell debris from the analysis, and a histogram of fluorescein fluorescence (channel FL1) was bimodal with peaks for caspase positive and caspase negative cells. The percentage of caspase positive cells was determined from the histograms and expressed as an average of 3 experiments.
# MES-SA cells were treated as described above, cells were harvested after the 1 h exposure, and caspase activity was detected using a fluorescent caspase inhibitor and flow cytometric analysis. […] Cell numbers under each peak were quantified and averaged to determine the percentage of the cell population in which caspases were activated under each treatment condition. […] In fact, the percent of caspase positive cells was enhanced almost 4 fold when cells were treated with Tat-ELP1-GFLG-Dox (SEQ ID NO: 3) at 42° C. versus 37° C. (p<0.05).
# [4] = tested on: MES-SA/Dx5 cells; test: Drug efflux by flow cytometry; details: loaded 5 h with 10 μM
# Description: For further evidence that Tat-ELP-GFLG-DOX (SEQ ID NO: 3) can bypass the drug efflux pump, flow cytometry was used to analyze drug efflux from cells treated with free DOX or with Tat-ELP-GFLG-DOX (SEQ ID NO: 3). Cells were loaded for 5 h with either 10 μM DOX or Tat-ELP-GFLG-DOX (SEQ ID NO: 3), then the drug was removed and fresh media was replaced. Cells were collected and analyzed for DOX content using flow cytometry. […] The cells with low DOX fluorescence have pumped the drug out. As time passes after removal of the drug, the DOX positive peak gets lower in intensity and becomes a smaller percentage of the population. This illustrates the removal of DOX from theses cells with time after washing the drug out of the media. […] This means that all cells have the same amount of drug in them. This single peak is still evident at all time points after removal of the drug. This means that these cells are unable to pump the ELP delivered DOX out.
# [5] = tested on: MES-SA cells; test: DIC microscopy of apoptotic cell morphology; details: 10 μM, 1 h, temperature not distinguished
# Description: 1.9. Apoptosis Assays. For differential interference contrast (DIC) microscopy, MES-SA cells were plated onto 22 mm^2 coverslips at 50% confluence. Cells were treated as described above with the indicated protein, rinsed with PBS, and mounted onto glass slides. The unfixed cells were imaged immediately using a Zeiss Axiovert 200 DIC microscope with a 40× oil immersion objective and a Coolsnap HQ camera.
# 2.6. Induction of Apoptosis. […] This effect was documented by treating MES-SA cells adhered to glass cover slips with each construct and imaging them by DIC microscopy. Cells were treated for 1 h as described above, then immediately mounted on slides and imaged without fixation. […] Untreated cells were spread onto the glass, and morphological features such as nuclei and endocytic vesicles were readily visible. This morphology was not altered by simply exposing the cells to hyperthermia. […] However, such effects were minor and limited to a fraction of the cells. […] All cells examined were rounded with no discernable nucleus and fragmented chromosomes.
# [6] = tested on: MES-SA cells; test: Confocal fluorescence microscopy of intracellular localization; details: 10 μM, after 1 h exposure; listed as free drug
# Description: 1.7. Laser Scanning Confocal Fluorescence Microscopy. MES-SA cells were plated on 22 mm^2 cover slips at approximately 50% confluence and treated as described above with Tat-ELP-GFLG-Dox (SEQ ID NO: 3). Cells were rinsed with PBS at the indicated times, fixed with paraformaldehyde (PFA, 2% v/v) and visualized using a TCS SP2 laser scanning confocal microscope with a 100× oil immersion objective (Leica, Wetzlar, Germany). PMT voltages were lowered for imaging of cells treated at 42° C. during image acquisition to maximize image resolution and intensity.
# 3.4. Cellular Distribution. To confirm that Tat-ELP-GFLG-Dox (SEQ ID NO: 3) was internalized and not merely attached to the cell exterior, the cellular distribution of the ELP-delivered drug was examined by confocal fluorescence microscopy. MES-SA cells were treated for 1 h at 37° C. and 42° C. with 10 μM Tat-ELP1-GFLG-Dox (SEQ ID NO: 3). The cells were rinsed and analyzed immediately after treatment and 24 h later using the intrinsic Dox fluorescence. […] Untreated cells had no signal under the imaging settings used, ruling out any contribution to the images from autofluorescence (FIG. 7B, right panel).
smiles,measurement,setting,value
"COc1cccc2c1C(=O)c1c(O)c3c(c(O)c1C2=O)C[C@@](O)(C(=O)CO)C[C@@H]3O[C@H]1C[C@H](N)[C@H](O)[C@H](C)O1 [Dox, doxorubicin]",Resistance of MES-SA/Dx5 relative to MES-SA cells,[1],100 times
same,Resistance of MES-SA/Dx5 relative to MES-SA cells,[1]; continuous 72 h exposure,about 100 fold
same,Cytotoxicity in words,[2],more cytotoxic than the polymer-delivered drug
same,IC50 relative to Tat-ELP-GFLG delivered Dox (times lower),[2],about 150 times
same,IC50,"[2]; 1 h treatment at 37° C., read-out: IC50 (37° C.)",130 ± 10 nM
same,IC50,"[2]; 1 h treatment at 42° C., read-out: IC50 (42° C.)",58 ± 20 nM
same,Thermal Targeting Index (IC50 37°/IC50 42°),[2]; IC50 at 37° C. divided by IC50 at 42° C.,2.3 †
same,Enhancement of percent caspase positive cells at 42° C. versus 37° C.,[3],not affected by hyperthermia
same,Caspase activation / apoptosis induction,[3]; temperature not distinguished,induced apoptosis
same,Drug efflux: Dox fluorescence histogram after removal of the drug,[4],two populations
same,Cell morphology (hallmarks of apoptosis),[5],noticeable rounding and membrane blebbing
same,Intracellular localization of Dox,[6],exclusively in the cell nucleus; also recorded: localizes entirely in the nucleus
